What all share (assay): NCI anticancer screen, dose series, 48 h
In experiment [1] the test system is COLO 205 colon.
For experiment [2], the system named is SK-MEL-28 melanoma.
Experiment [3] deals with SK-MEL-5 melanoma.
Experiment [4] has as its system CAKI-1 renal.
The test system of experiment [5] is MDA-MB-231 breast.
In experiment [6] the test system is SK-MEL-2 melanoma.
Experiment [7] relates to NCI-H522 lung.
Experiment [8] concerns SK-OV-3 ovarian.
In experiment [9] the test system is HCT-116 colon.
Experiment [10] relates to CCRF-CEM leukemia.

Structures are written as SMILES.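 All cell lines were grown in 96-well plates and treated with compound for 48 hours. The concentration for 50% growth inhibition is given as GI50. TGI denotes the concentration required for complete inhibition of growth.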

As for `O=C(Oc1ccc(CO[N+](=O)[O-])cc1)c1ccccc1`, the GI50 is 128 nM in [1]; 0.171 µM in [2]; 0.474 µM in [3]; 0.163 µM in experiment [4]; 144 nM in [5]; 0.162 µM in experiment [6]. Also, the GI50 is 0.158 µM in experiment [7], 0.348 µM in experiment [8], 101 nM in experiment [9] and 0.0324 µM in experiment [10]. The TGI in experiment [1] amounted to 0.301 µM; in [2], 0.332 µM; in experiment [3], 1.73 µM; in experiment [4], 0.308 µM; in experiment [5], 0.306 µM; in experiment [6], 0.322 µM. Besides, the TGI was 0.318 µM in experiment [7], 1.3 µM in experiment [8], 0.241 µM in [9] and 0.173 µM in experiment [10].

Consider `OCc1ccc(-c2cscc2-c2ccc(CO)o2)o1`, for which the GI50 was 1970 nM in [1]; over 100 µM in experiment [2]; 16.2 µM in [3]; 5 µM in [4]; over 100000 nM in [5]; 22.5 µM in experiment [6]. Besides, the GI50 in experiment [7] is over 93.3 µM; in experiment [8] it was 8.98 µM; in [9], 1650 nM; in [10], over 100 µM. Besides, the TGI in experiment [1] is 4.83 µM; in experiment [2], over 100 µM; in experiment [3] it was over 100 µM; in experiment [4], over 100 µM; in experiment [5] it was over 100 µM; in experiment [6] it was over 100 µM. Moreover, the TGI in [7] is over 100 µM; in experiment [8] it was 50.3 µM; in experiment [9], over 69.5 µM; in experiment [10], over 100 µM.

On to `COc1ccc(-c2nc(-c3nc4ccc(F)cc4[nH]3)c3ccccn23)cc1`, for which the GI50 in experiment [1] was 78100 nM; in [2], 22.8 µM; in experiment [3], 2.2 µM; in [4], 12.1 µM; in experiment [5], 4340 nM; in experiment [6], 10.1 µM. The GI50 in experiment [7] was 4.49 µM; in experiment [8], 10.3 µM; in experiment [9] it was 3610 nM; in experiment [10], 4.39 µM. Moreover, the TGI in experiment [1] was over 100 µM; in experiment [2], over 100 µM; in experiment [3], 6.71 µM; in experiment [4] it was over 100 µM; in experiment [5], 30.4 µM; in experiment [6] it was 54.8 µM. The TGI in experiment [7] is 25 µM; in experiment [8], 37.3 µM; in [9], 17.8 µM; in experiment [10], over 100 µM.

Take `COC(=O)COc1ccc(/C=C2/N=C(c3ccccc3)N(c3c(C)n(C)n(-c4ccccc4)c3=O)C2=O)cc1`: the GI50 in experiment [1] was 16000 nM; in experiment [2], 16.8 µM; in [3], 26 µM; in [4], over 100 µM; in [5] it was 21800 nM; in experiment [6], 19.1 µM. Besides, the GI50 in experiment [7] is 17.8 µM; in experiment [8], 17.3 µM; in experiment [9] it was 32400 nM; in experiment [10], 13.2 µM. Further, the TGI in [1] was 35.9 µM; in experiment [2], 30.9 µM; in [3], 60.7 µM; in experiment [4] it was over 100 µM; in experiment [5] it was 45.1 µM; in experiment [6] it was 38 µM. In addition, the TGI was 41 µM in experiment [7], 37.9 µM in experiment [8], over 100 µM in experiment [9] and 50.2 µM in [10].

On to `COc1ccc(C(O)c2cc3c(N)c(C(=O)Nc4cccc(Cl)c4)sc3nc2C)cc1` (stereo not given), for which the GI50 in experiment [1] was 2790 nM; in experiment [2] it was 1.23 µM; in experiment [3] it was 1.17 µM; in experiment [4], 1.27 µM; in experiment [5], 1410 nM; in [6], 1.29 µM. Moreover, the GI50 is 1.05 µM in experiment [7], 1.78 µM in experiment [8], 921 nM in experiment [9] and 1.13 µM in [10]. Further, the TGI was 25.2 µM in [1]; 55 µM in experiment [2]; over 32 µM in experiment [3]; over 39.4 µM in [4]; over 33.1 µM in experiment [5]; 42.7 µM in experiment [6]. The TGI in [7] is over 41.9 µM; in [8], over 40.5 µM; in experiment [9], over 33.1 µM; in experiment [10] it was over 100 µM.

Consider `Cc1cc(O)c(C2=NN(c3ccc(S(N)(=O)=O)cc3)C(c3ccc(Cl)cc3)C2)c(C)c1Cl` (stereo not given), for which the GI50 in experiment [1] was 1690 nM; in experiment [2], 11.7 µM; in experiment [3] it was 9.59 µM; in experiment [4], 4.38 µM; in experiment [5], 2340 nM; in experiment [6], 11.9 µM. Also, the GI50 in experiment [7] was 6.24 µM; in [8] it was 7.75 µM; in experiment [9], 3470 nM; in experiment [10], 3.64 µM. Also, the TGI in experiment [1] is 3.31 µM; in experiment [2], 23.9 µM; in experiment [3], 21.4 µM; in experiment [4], 18.2 µM; in [5], 11.8 µM; in experiment [6] it was 27.6 µM. Further, the TGI in experiment [7] is 21.6 µM; in experiment [8], 20.6 µM; in experiment [9], 12.9 µM; in [10], 13.5 µM.
